As usually defined, the IC50 is the concentration that inhibits the measured activity by half.

The assay concerns the target T1, human QRFP receptor (GPR103) (Homo sapiens, UniProt Q96P65).
T1 construct: expressed in transfected cells; host or cells: NFAT β-Lactamase CHO-K1 host cells (Aurora); membrane specimen
T1 sequence (Q96P65 1-431): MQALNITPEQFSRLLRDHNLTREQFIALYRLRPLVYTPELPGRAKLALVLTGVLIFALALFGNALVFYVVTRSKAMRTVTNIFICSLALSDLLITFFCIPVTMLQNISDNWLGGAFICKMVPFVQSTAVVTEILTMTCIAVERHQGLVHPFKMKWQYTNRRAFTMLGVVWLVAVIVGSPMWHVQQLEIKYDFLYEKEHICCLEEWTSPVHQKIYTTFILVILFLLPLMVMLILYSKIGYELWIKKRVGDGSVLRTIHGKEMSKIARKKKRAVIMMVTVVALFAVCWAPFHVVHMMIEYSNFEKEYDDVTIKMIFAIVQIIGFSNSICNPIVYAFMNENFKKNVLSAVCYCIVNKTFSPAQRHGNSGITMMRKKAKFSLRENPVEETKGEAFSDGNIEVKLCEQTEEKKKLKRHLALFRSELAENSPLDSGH
The assay is described as follows: QRFP43 Binding Inhibition Test. Particulars: membrane specimen from GPR103 expressing CHO-K1 cells, [125I] QRFP43, 25° C., 1 hour; read-out: IC50 for the specific [125I] QRFP43 binding. The source says:
The cDNA sequence [Accession No. NM_198179] that codes for human QRFP receptor (GPR103) was cloned into an expression vector pEF1V5-HisB (Invitrogen). The expression vector so prepared was transfected into NFAT [β-Lactamase CHO-K1 host cells (Aurora) to obtain QRFP receptor (GPR103) expressing cells, using the cationic lipid method [see Proceedings of the National Academy of Sciences of the United States of America, Vol. 84, p. 7413 (1987)].
The membrane specimen prepared from the QRFP receptor (GPR103) expressing cells was incubated at 25° C. for 1 hour with a test compound and 20,000 cpm [^125I] QRFP43 (PerkinElmer, Inc.) in an assay buffer (50 mM Tris-HCl, 1 mM EDTA, and 0.1% BSA, pH 7.4), followed by filtration using a glass filter GF/C. After washing with a 50 mM Tris-HCl (containing 2 mM EDTA, 10 mM MgCl2, and 0.04% Tween-20) buffer at pH 7.4, the radioactivity on the glass filter was determined using a gamma counter. Non-specific binding was measured in the presence of 1 μM peptide QRFP43, and 50% inhibition concentration (IC50 value) of the test compound for the specific [^125I] QRFP43 binding was determined [see Endocrinology, Vol. 131, p. 2090 (1992)].

For the compound `COc1ccc(C2=NCCN2C(c2ccccc2)c2ccccc2)cc1` [Example 6, 1-(Diphenylmethyl)-2-(4-methoxyphenyl)-4,5-dihydro-1H-imidazole], the IC50 was found to be 11 nM.
Next, `Clc1ccc(C2=NCCN2C(c2ccccc2)c2ccccc2)cc1` [Example 2, 2-(4-Chlorophenyl)-1-(diphenylmethyl)-4,5-dihydro-1H-imidazole]: 17 nM; `Cc1ccc(C2=NCCN2C(c2ccccc2)c2ccccc2)cc1` [Example 5, 1-(Diphenylmethyl)-2-(4-methylphenyl)-4,5-dihydro-1H-imidazole]: 37 nM.
